Test results from publication PMC8395935 (Medical Sciences, 2021).

Tests used:
[1] = system: CD-1 mice; test: Transcardiac brain perfusion (absence of serum factors) after chronic rapamycin treatment; conditions: rapamycin 8 mg/kg IP daily for 2 weeks
Procedure: (§1) The vehicle was prepared by creating a 1.2% DMSO solution in 5% Tween 80, 5% PEG 400.
Perfusate was collected throughout the study to determine the average cpm/µL of perfusate. After perfusion, the whole brain was weighed and the amount of radioactivity was counted in a gamma counter (Wizard2, PerkinElmer). The brain/perfusate ratios were calculated by dividing the cpm in a gram of brain by the cpm in a µL of perfusate to yield the units of µL/g.
(§2) The exposure time is calculated by the formula:(1) Exposure time=∫0tCptdt/Cpt where Cp(t) is the level of radioactivity (cpm) in the serum at time (t). The exposure time corrects for the clearance of peptide from the blood. […] The slope of the linearity measures the Ki and is reported with its standard error term. The y-intercept of the linearity measures the Vi, the initial volume of distribution in brain at t = 0 [11].

[2] = system: humans; conditions: 10 mg/day dose for 42 days as tolerated, patients with initial hyperlipidemic response; cited from earlier work
Excerpt: (§3) Triglycerides were one mechanism we hypothesized rapamycin could impact insulin BBB transport. […] A study in humans reported an increase in the serum triglyceride levels by approximately 47% follow ...

[3] = system: mice; conditions: cited from earlier work
Excerpt: as §3

[4] = system: CD-1 mice; test: Intravenous injection study with multiple-time regression analysis after an acute rapamycin i.v. injection; conditions: male CD-1 mice
Procedure: (§4) The blood glucose was measured via the tail vein (AlphaTrak2, Abbott Laboratories, Chicago, IL, USA). […] The radioactivity circulated for times between 1–10 min, after which the carotid artery was cut to collect blood. The mice were immediately decapitated and the whole brain was removed and weighed. The blood was centrifuged at 5400 g for 10 min and the amount of radioactivity in the serum (50 µL) and the whole brain was counted in a gamma counter (Wizard2, PerkinElmer, Waltham, MA, USA). Two separate cohorts of mice were combined in the final analyses. […] Naïve male mice were anesthetized as described.
as §2

[5] = system: CD-1 mice; test: Intravenous injection study with multiple-time regression analysis after chronic rapamycin treatment; conditions: for Vi (125I-insulin vascular binding) / Ki (125I-insulin BBB transport): rapamycin 8 mg/kg IP daily for 2 weeks, i.v. tracer
Procedure: as §1, §4, §2

[6] = system: CD-1 mice; test: Serum triglyceride levels after chronic rapamycin treatment; type: in vivo; conditions: two-week rapamycin treatment 8 mg/kg IP daily; males and females; n = 4/group
[7] = system: mice; conditions: cited from earlier work; remark: listed apart in the source
Excerpt: We observed a decrease in body weight only in males.

[8] = system: aorta; test: Western immunoblotting of insulin signaling proteins in the aorta; type: in vivo, mice; conditions: 2 weeks rapamycin 8 mg/kg
Procedure: (§5) Following a 6 h fast, blood glucose was taken. The mice were anesthetized as described above, the thoracic cavity was opened, and blood was collected from the descending aorta. […] The brain vasculature was washed out by perfusing 20 mL of ice cold LR into the left ventricle of the heart. The brain was removed and split into the right and left hemispheres. The aorta was also removed. The blood was centrifuged at 5400 g for 10 min and the serum was collected. All the tissues were snap frozen in liquid nitrogen and stored at −80 °C until further processing.
The right hemisphere was crushed with a mortar and pestle in liquid nitrogen and approximately 100 mg of tissue was homogenized in radioimmunoprecipitation assay (RIPA) buffer (150 mM NaCl, 0.5% deoxycholic acid, 0.1% sodium dodecyl sulfate (SDS), 20 mM Tris HCl, and 2 mM ethylenediaminetetraacetic acid (EDTA)) plus freshly added 1/100 dilutions of a protease inhibitor cocktail (Sigma-Aldrich), 1mM sodium orthovanadate, and a phosphatase inhibitor (1 tablet PhosSTOP per 10 mL buffer) (Roche, Basel, Switzerland). The aortas were homogenized in the same lysis buffer. The samples were sonicated at 40% amplitude prior to centrifugation at 12,000× g for 10 min at 4 °C. The supernatants were collected and frozen at −80 °C. The protein was measured using the Pierce BCA Protein Assay Kit (Thermo Fisher Scientific, Rockford, IL, USA). […]

[9] = system: CD-1 mice; test: Measurement of hormone levels in serum and brain lysate (Bio-Plex Pro Mouse Diabetes Assay); type: in vivo; conditions: 2 weeks rapamycin 8 mg/kg
Procedure: as §5
The right hemisphere was crushed with a mortar and pestle in liquid nitrogen and approximately 100 mg of tissue was homogenized in radioimmunoprecipitation assay (RIPA) buffer (150 mM NaCl, 0.5% deoxycholic acid, 0.1% sodium dodecyl sulfate (SDS), 20 mM Tris HCl, and 2 mM ethylenediaminetetraacetic acid (EDTA)) plus freshly added 1/100 dilutions of a protease inhibitor cocktail (Sigma-Aldrich), 1mM sodium orthovanadate, and a phosphatase inhibitor (1 tablet PhosSTOP per 10 mL buffer) (Roche, Basel, Switzerland). The aortas were homogenized in the same lysis buffer. The samples were sonicated at 40% amplitude prior to centrifugation at 12,000× g for 10 min at 4 °C. The supernatants were collected and frozen at −80 °C. The protein was measured using the Pierce BCA Protein Assay Kit (Thermo Fisher Scientific, Rockford, IL, USA).
A panel of 8 metabolic hormones was measured in the brain lysate and serum using a Bio-Plex Pro Mouse Diabetes Assay (Bio-Rad Laboratories, Hercules, CA, USA): ghrelin, glucose-dependent insulinotropic peptide (GIP), glucagon-like peptide-1 (GLP-1), glucagon, insulin, leptin, plasminogen activator inhibitor-1 (PAI-1), and resistin. The serum was diluted 1:4 with the kit diluent. Twenty µg/µL protein lysate samples were measured from the right hemisphere. The samples were measured according to the manufacturer and read on a Bio-Plex 200 (Bio-Rad Laboratories).

[10] = system: CD-1 mice; test: Measurement of serum cytokines (Bio-Plex Pro Mouse Cytokine Assay); type: in vivo; conditions: 2 weeks rapamycin 8 mg/kg
Procedure: as §5
A panel of 23 cytokines was measured in the brain protein lysate and serum using a mouse Bio-Plex Pro Mouse Cytokine Assay (Bio-Rad Laboratories): interleukin (IL)-1α; IL-1β; IL-2; IL-3; IL-4; IL-5; IL-6; IL-9; IL-10; IL-12(p40); IL-12(p70); IL-13; IL-17; eotaxin (CCL11); granulocyte colony-stimulating factor (G-CSF); granulocyte-macrophage colony-stimulating factor (GM-CSF); interferon (IFN)-γ; keratinocyte chemoattractant (KC) (CXCL1); monocyte chemoattractant protein (MCP)-1 (CCL2); macrophage inflammatory protein (MIP)-1α (CCL3); MIP-1β (CCL4); and regulated on activation, normal T cell expressed and secreted (RANTES; CCL5) and tumor necrosis factor (TNF)-α). The serum samples were diluted 1:4 with the kit sample diluent. The samples were measured according to the manufacturer and read on a Bio-Plex 200 (Bio-Rad Laboratories).

[11] = system: CD-1 mice; test: Body weight and fasting blood glucose after chronic rapamycin treatment; type: in vivo
Procedure: as §1, §4

[12] = following an 8 mg/kg body weight IP injection; cited from earlier work
[13] = female CD-1 mice, transcardiac perfusion

SMILES: CO[C@H]1C[C@@H]2CC[C@@H](C)[C@@](O)(O2)C(=O)C(=O)N2CCCC[C@H]2C(=O)O[C@H]([C@H](C)C[C@@H]2CC[C@@H](O)[C@H](OC)C2)CC(=O)[C@H](C)/C=C(\C)[C@@H](O)[C@@H](OC)C(=O)[C@H](C)C[C@H](C)/C=C/C=C/C=C/1C [Rapamycin]
- Ki (125I-insulin BBB transport, absence of serum factors) [1, 13]: 1.89 ± 0.63 µL/g/min
- Vi (125I-insulin vascular binding, absence of serum factors) [1, 13]: 8.3 ± 2.1 µL/g
- Vi (125I-insulin vascular binding, absence of serum factors) ([1]; male CD-1 mice, transcardiac perfusion): 8.0 ± 1.7 µL/g
- Ki (125I-insulin BBB transport, absence of serum factors) ([1]; male CD-1 mice, transcardiac perfusion 2 mL/min, 1-5 min, brain/perfusate ratio vs clock time): 1.35 ± 0.53 µL/g/min
- increase in serum triglyceride levels [2]: approximately 47%
- increase in serum triglyceride levels ([3]; growth hormone receptor knockout male mice, 4 mg/kg every other day for 20 weeks): approximately 12%
- serum triglyceride levels ([3]; mice fed rapamycin orally): no differences were observed
- Ki (unidirectional influx of 125I-insulin from blood to brain) ([4]; rapamycin 400 ng i.v. 10 min before 125I-insulin i.v., brain/serum ratio corrected with 99mTc-albumin, 1-10 min, slope ± standard error, gamma counter): 0.541 ± 0.13 µL/g/min
- Vi (125I-insulin vascular binding) ([4]; rapamycin 400 ng i.v. 10 min before 125I-insulin i.v., y-intercept of regression, p = 0.02 vs vehicle): 10.1 ± 1.3 µL/g
- rate of insulin BBB transport (Ki) ([4]; rapamycin 400 ng i.v. 10 min before tracer, p = 0.63 vs vehicle): 0.54 ± 0.1 µL/g/min
- Vi (125I-insulin vascular binding) ([5]; female CD-1 mice): 9.9 ± 2.9 µL/g
- Ki (125I-insulin BBB transport) ([5]; female CD-1 mice, linear regression not significant (ns)): 0.73 ± 0.34 µL/g/min
- Vi (125I-insulin vascular binding) ([5]; male CD-1 mice): 4.0 ± 1.0 µL/g
- Ki (125I-insulin BBB transport) ([5]; male CD-1 mice, slope ± standard error, p = 0.055 vs vehicle): 1.32 ± 0.19 µL/g/min
- vascular marker 99mTc-albumin (BBB integrity) ([5]; two-week rapamycin treatment, data not shown): no effect
- serum triglyceride levels [6]: did not elicit a significant change
- glucose tolerance ([7]; 2 weeks of daily injections of a fourfold lower concentration than the current study): impair glucose tolerance
- serum glucose levels ([7]; five weeks of daily rapamycin treatment, mice fasted overnight): increase
- MAPK protein expression relative to β-actin ([8]; males and females, treatment p = 0.006, n = 3-4/group): significant increase
- phosphorylated Akt (pAkt Ser473) relative to total Akt ([8]; only in males, interaction p = 0.0918, n = 3-4/group): trend in decreased levels
- serum GLP-1 levels ([9]; 6 h fast, treatment p = 0.015, n = 4/group): significantly increased
- serum resistin levels ([9]; males and females, 6 h fast, p < 0.0001, n = 4/group): significantly decreased
- ghrelin, GIP, glucagon, or leptin levels ([9]; serum, 6 h fast, n = 4/group): no effect
- brain insulin levels ([9]; whole brain lysate, treatment p = 0.034, post hoc p = 0.014, n = 3-4/group): significant differences in females only
- serum IL-2 levels ([10]; 6 h fast, p = 0.009, n = 3/group): increased
- serum IL-17 levels ([10]; 6 h fast, p = 0.023, n = 3/group): increased
- serum IL-3 levels ([10]; 6 h fast, treatment p = 0.004, post hoc in males p = 0.007, n = 3/group): increased significantly
- serum TNF-α, RANTES, and GM-CSF levels ([10]; not statistically significant (0.05 < p < 0.07)): trend towards an increase
- body weight gain ([11]; 2 weeks of rapamycin 8 mg/kg IP daily, males n = 24-34, females n = 18-19): impacted body weight gain in males only
- fasting blood glucose levels ([11]; females, 2 weeks rapamycin 8 mg/kg IP daily, 6 h fast, p = 0.19): did not have the same increase
- mean fasting blood glucose levels ([11]; males, 2 weeks rapamycin 8 mg/kg IP daily, 6 h fast, p < 0.001 vs vehicle (157 mg/dL), n = 12-16/group): 226 mg/dL
- blood rapamycin levels [12]: 100 ng/mL
